Usually IC50 stands for the concentration that gives 50% inhibition.

IC50 data for 18 molecules are collected here from patent US20130217664A1, “NOVEL COMPOUNDS USEFUL FOR THE TREATMENT OF DEGENERATIVE AND INFLAMMATORY DISEASES” (priority 2012, published 2013).

Where only a bound is given, the exact number is not on record here.

Holding throughout (assay type): biochemical
The target of one experiment is T1, human JAK1 (Homo sapiens, UniProt P23458).
T1 construct: catalytic domain, amino acids 866-1154; catalog number PV4774; purchased Invitrogen PV4774
T1 sequence (P23458 866-1154): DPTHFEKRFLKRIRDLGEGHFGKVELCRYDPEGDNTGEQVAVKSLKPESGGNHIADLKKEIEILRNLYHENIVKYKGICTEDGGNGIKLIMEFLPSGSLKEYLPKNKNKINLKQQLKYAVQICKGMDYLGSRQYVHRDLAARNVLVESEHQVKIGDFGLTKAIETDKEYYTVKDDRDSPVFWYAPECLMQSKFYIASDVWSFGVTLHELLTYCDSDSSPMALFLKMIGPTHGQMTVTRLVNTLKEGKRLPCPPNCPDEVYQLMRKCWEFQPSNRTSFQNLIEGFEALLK
Briefly: JAK1 inhibition assay (polyGT substrate / Ulight-JAK1 peptide). Particulars: recombinant human JAK1 catalytic domain; polyGT or Ulight-JAK1 peptide assay. An outline of the steps: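 Signal scaled between vehicle and 10 μM staurosporine. Radiometric polyGT reactions ran 45 min at 30 °C, counted after phosphoric-acid stop. Ulight peptide reactions ran 60 min at room temperature, fluorescence read after adding Eu-PT66 detection mix with EDTA.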

In the next experiment the target is T2, human TYK2 (Homo sapiens, UniProt P29597).
T2 construct: catalytic domain (amino acids 871-1187; catalog number 08-147); purchased Carna Biosciences 08-147
T2 sequence (P29597 871-1187): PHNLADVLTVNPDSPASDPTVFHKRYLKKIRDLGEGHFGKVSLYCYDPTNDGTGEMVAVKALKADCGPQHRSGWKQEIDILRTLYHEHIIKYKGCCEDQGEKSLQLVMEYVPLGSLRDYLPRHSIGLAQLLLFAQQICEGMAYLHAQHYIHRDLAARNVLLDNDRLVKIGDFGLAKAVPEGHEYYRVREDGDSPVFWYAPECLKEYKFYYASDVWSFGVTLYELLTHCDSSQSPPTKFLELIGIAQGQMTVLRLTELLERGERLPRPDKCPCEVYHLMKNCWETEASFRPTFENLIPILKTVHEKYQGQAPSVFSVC
Kind of experiment: TYK2 inhibition assay. To be noted: recombinant human TYK2 catalytic domain, polyGT substrate. As to the method:
1.4 TYK2 Inhibition Assay
After 90 min at 30° C., reactions were stopped by adding 25 μL/well of 150 mM phosphoric acid. […] Plates were washed 6 times with 300 μL per well of a 75 mM phosphoric acid solution and the bottom of the plates was sealed. 40 μL/well of Microscint-20 was added, the top of the plates was sealed and readout was performed using the Topcount (Perkin Elmer). Kinase activity was calculated by subtracting counts per min (cpm) obtained in the presence of a positive control inhibitor (10 μM staurosporine) from cpm obtained in the presence of vehicle. The ability of a test compound to inhibit this activity was determined as:
(§1) Percentage inhibition=((cpm determined for sample with test compound present−cpm determined for sample with positive control inhibitor)divided by(cpm determined in the presence of vehicle−cpm determined for sample with positive control inhibitor))*100.
Dose dilution series were prepared for the compounds enabling the testing of dose-response effects in the TYK2 assay and the calculation of the IC50 for each compound.

The next experiment deals with T3, human JAK2 (Homo sapiens, UniProt O60674).
T3 construct: catalytic domain (amino acids 808-1132; catalog number PV4210); GST; purchased Invitrogen PV4210
T3 sequence (O60674 808-1132): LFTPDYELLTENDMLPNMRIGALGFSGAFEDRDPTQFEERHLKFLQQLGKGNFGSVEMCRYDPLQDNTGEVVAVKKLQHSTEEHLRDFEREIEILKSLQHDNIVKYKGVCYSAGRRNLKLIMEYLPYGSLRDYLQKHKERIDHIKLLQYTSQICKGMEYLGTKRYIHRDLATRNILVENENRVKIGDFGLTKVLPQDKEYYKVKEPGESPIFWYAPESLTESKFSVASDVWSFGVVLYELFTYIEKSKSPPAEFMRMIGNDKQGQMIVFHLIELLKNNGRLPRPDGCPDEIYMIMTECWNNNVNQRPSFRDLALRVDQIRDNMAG
Kind of experiment: JAK2 inhibition assay (polyGT substrate / Ulight-JAK1 peptide). Particulars: recombinant human JAK2 catalytic domain; polyGT or Ulight-JAK1 peptide assay. The protocol: 1.2 JAK2 Inhibition Assay
1.2.1 JAK2 Assay polyGT Substrate
0.025 mU of JAK2 is incubated with 2.5 μg polyGT substrate (Sigma catalog number P0275) in kinase reaction buffer (5 mM MOPS pH 7.5, 9 mM MgAc, 0.3 mM EDTA, 0.06% Brij and 0.6 mM DTT, 1 μM non-radioactive ATP, 0.25 μCi ^33P-gamma-ATP (GE Healthcare, catalog number AH9968) final concentrations) with or without 5 μL containing test compound or vehicle (DMSO, 1% final concentration), in a total volume of 25 μL, in a polypropylene 96-well plate (Greiner, V-bottom). After 90 min at 30° C., reactions are stopped by adding of 25 μL/well of 150 mM phosphoric acid. […] Plates are washed 6 times with 300 μL per well of a 75 mM phosphoric acid solution and the bottom of the plates is sealed. 40 μL/well of Microscint-20 is added, the top of the plates is sealed and readout is performed using the Topcount (Perkin Elmer). Kinase activity is calculated by subtracting counts per min (cpm) obtained in the presence of a positive control inhibitor (10 μM staurosporine) from cpm obtained in the presence of vehicle. The ability of a test compound to inhibit this activity is determined as:
as §1
Dose dilution series are prepared for the compounds enabling the testing of dose-response effects in the JAK2 assay and the calculation of the IC50 for each compound.
1.2.2 JAK2 Ulight-JAK1 Peptide Assay
After 60 min at room temperature, reactions were stopped by adding 20 μL/well of detection mixture (1× detection buffer (Perkin Elmer, catalog number CR97-100C), 0.5 nM Europium-anti-phosphotyrosine (PT66) (Perkin Elmer, catalog number AD0068), 10 mM EDTA). […] Kinase activity was calculated by subtracting relative fluorescence units (RFU) obtained in the presence of a positive control inhibitor (10 μM staurosporine) from RFU obtained in the presence of vehicle. The ability of a test compound to inhibit this activity was determined as:
Percentage inhibition=((RFU determined for sample with test compound present−RFU determined for sample with positive control inhibitor)divided by(RFU determined in the presence of vehicle−RFU determined for sample with positive control inhibitor))*100.
Dose dilution series are prepared for compound enabling the testing of dose-response effects in the JAK2 assay and the calculation of the IC50 for the compound. Each compound is routinely tested at concentration of 20 μM followed by a 1/5 serial dilution, 10 points in a final concentration of 1% DMSO. […] The data are expressed as the average IC50 from the assays±standard error of the mean.

The target in another experiment is T4, human JAK3 (Homo sapiens, UniProt P52333).
T4 construct: catalytic domain (amino acids 781-1124; catalog number PV3855); purchased Invitrogen PV3855
T4 sequence (P52333 781-1124): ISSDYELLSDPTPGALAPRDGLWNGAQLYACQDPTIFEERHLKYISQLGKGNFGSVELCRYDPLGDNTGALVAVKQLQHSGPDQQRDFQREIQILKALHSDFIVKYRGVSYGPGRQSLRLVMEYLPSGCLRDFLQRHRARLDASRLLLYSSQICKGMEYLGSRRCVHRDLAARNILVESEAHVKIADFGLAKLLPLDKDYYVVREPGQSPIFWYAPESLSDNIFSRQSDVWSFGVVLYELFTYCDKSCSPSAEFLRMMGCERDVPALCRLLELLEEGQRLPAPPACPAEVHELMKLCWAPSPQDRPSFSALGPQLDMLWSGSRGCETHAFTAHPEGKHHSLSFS
Kind of experiment: JAK3 inhibition assay. To be noted: recombinant human JAK3 catalytic domain; polyGT substrate. As to the method:
1.3 JAK3 Inhibition Assay
0.5 ng JAK3 protein was incubated with 2.5 μg polyGT substrate (Sigma catalog number P0275) in kinase reaction buffer (25 mM Tris pH 7.5, 0.5 mM EGTA, 10 mM MgCl2, 2.5 mM DTT, 0.5 mM Na3VO4, 5 mM b-glycerolphosphate, 0.01% Triton X-100, 1 μM non-radioactive ATP, 0.25 μCi 33P-gamma-ATP (GE Healthcare, catalog number AH9968) final concentrations) with or without 5 μL containing test compound or vehicle (DMSO, 1% final concentration), in a total volume of 25 μL, in a polypropylene 96-well plate (Greiner, V-bottom). After 45 min at 30° C., reactions were stopped by adding 25 μL/well of 150 mM phosphoric acid. […] Plates were washed 6 times with 300 μL per well of a 75 mM phosphoric acid solution and the bottom of the plates was sealed. 40 μL/well of Microscint-20 was added, the top of the plates was sealed and readout was performed using the Topcount (Perkin Elmer). Kinase activity was calculated by subtracting counts per min (cpm) obtained in the presence of a positive control inhibitor (10 μM staurosporine) from cpm obtained in the presence of vehicle. The ability of a test compound to inhibit this activity was determined as:
as §1
Dose dilution series were prepared for the compounds enabling the testing of dose-response effects in the JAK3 assay and the calculation of the IC50 for each compound. Each compound was routinely tested at concentration of 20 μM followed by a 1/5 serial dilution, 10 points in a final concentration of 1% DMSO.

Take `CCc1cc(N2CC(N)C2)ncc1N(C)c1cc2c(cn1)ncn2C` [Compound 442, [6-(3-Amino-azetidin-1-yl)-4-ethyl-pyridin-3-yl]-methyl-(1-methyl-1H-imidazo[4,5-d]pyridin-6-yl)-amine]: the half-inhibitory concentration (IC50) was 101 to 500 nM on human JAK1, greater than 1000 nM on human TYK2, greater than 1000 nM at human JAK2 and greater than 1000 nM at human JAK3.
On to `CCc1cc(C2CN(C(=O)OC)C2)ncc1N(C)c1cc2c(cn1)ncn2C` [Compound 339, 3-{4-Ethyl-5-[methyl-(1-methyl-1H-imidazo[4,5-c]pyridin-6-yl)-amino]-pyridin-2-yl}-azetidine-1-carboxylic acid methyl ester], for which the IC50 at human JAK1 was 0.01 to 100 nM; on human TYK2 it was greater than 1000 nM; at human JAK2, 101 to 500 nM; at human JAK3 it was greater than 1000 nM.
For the molecule `CN(c1cc2c(cn1)ncn2C)c1c(F)cc(C#N)cc1F` [Compound 403, 3,5-Difluoro-4-[methyl-(1-methyl-1H-imidazo[4,5-c]pyridin-6-yl)-amino]-benzonitrile], the concentration for half-maximal inhibition (IC50) is 501 to 1000 nM at human JAK1, greater than 1000 nM at human TYK2, greater than 1000 nM at human JAK2 and greater than 1000 nM at human JAK3.
For `CCc1cn(C2(CC#N)CNC2)nc1N(C)c1cc2c(cn1)ncn2C` [Compound 309, (3-{4-Ethyl-3-[methyl-(1-methyl-1H-imidazo[4,5-c]pyridin-6-yl)-amino]-pyrazol-1-yl}-azetidin-3-yl)-acetonitrile], the IC50 on human JAK1, on human TYK2, on human JAK2 and at human JAK3 was greater than 1000 nM in each case.
Regarding `CCc1ccccc1N(CCC#N)c1cc2c(cn1)ncn2C` [Compound 464, 3-((2-ethylphenyl)(1-methyl-1H-imidazo[4,5-c]pyridin-6-yl)amino)propanenitrile], the 50% inhibitory concentration (IC50) on human TYK2, on human JAK2 and on human JAK3 was greater than 1000 nM each time.
Take `CN(c1cc2c(cn1)ncn2C)c1ccccc1C#N` [Compound 41, 2-(Methyl(1-methyl-1H-imidazo[4,5-c]pyridin-6-yl)amino)benzonitrile]: the 50% inhibitory concentration (IC50) on human JAK1 and on human JAK2 was greater than 1000 nM each time.
For `CN(c1ccc(OCC2CC2)cc1)c1cc2c(cn1)ncn2C` [Compound 24, N-(4-(cyclopropylmethoxy)phen-yl)-N,1-dimethyl-1H-imidazo[4,5-c]pyridin-6-amine], the results for the half-maximal inhibitory concentration (IC50) on human JAK1 and at human JAK2 were 101 to 500 nM and greater than 1000 nM, respectively.
On to `Cc1cc(OCC(=O)N(C)C)ccc1N(C)c1cc2c(cn1)ncn2C` [Compound 51, N,N-dimethyl-2-(3-methyl-4-(methyl(1-methyl-1H-imidazo[4,5-c]pyridin-6-yl)amino)phenoxy)acetamide], for which the IC50 on human JAK1 and at human JAK2 was greater than 1000 nM each time.
`CCN(c1ccc2ocnc2c1)c1cc2c(cn1)ncn2C` [Compound 3, N-ethyl-N-(1-methyl-1H-imidazo[4,5-c]pyridin-6-yl)benzo[d]oxazol-5-amine]: the IC50 at human JAK1 and at human JAK2 was greater than 1000 nM each time.
For the molecule `CN(c1ccc(OCc2ccccc2)cc1)c1cc2c(cn1)ncn2C` [Compound 14, N-(4-(benzyloxy)phenyl)-N,1-dimethyl-1H-imidazo[4,5-c]pyridin-6-amine], the IC50 at human JAK1 and at human JAK2 was greater than 1000 nM in each case.
`CCN(c1ccc2oc(C)nc2c1)c1cc2c(cn1)ncn2C` [Compound 6, N-ethyl-2-methyl-N-(1-methyl-1H-imidazo[4,5-c]pyridin-6-yl)benzo[d]oxazol-5-amine]: the 50% inhibitory concentration (IC50) on human JAK1 was 501 to 1000 nM; on human JAK2 it was greater than 1000 nM.
With `CCN(c1ccc(CO)cc1)c1cc2c(cn1)ncn2C` [Compound 13, (4-(ethyl(1-methyl-1H-imidazo[4,5-c]pyridin-6-yl)amino)phenyl)MeOH], the values for the half-inhibitory concentration (IC50) at human JAK1 and on human JAK2 were 501 to 1000 nM and greater than 1000 nM, respectively.
With `COc1ccccc1N(C)c1cc2c(cn1)ncn2C` [Compound 42, N-(2-methoxyphenyl)-N,1-dimethyl-1H-imidazo[4,5-c]pyridin-6-amine], the half-inhibitory concentration (IC50) was 101 to 500 nM at human JAK1 and greater than 1000 nM at human JAK2.
The matching figures for `CCc1ccncc1N(C)c1cc2c(cn1)ncn2C` [Compound 78, N-(4-ethylpyridin-3-yl)-N,1-dimethyl-1H-imidazo[4,5-c]pyridin-6-amine]: 101 to 500 nM and greater than 1000 nM.
In the case of `CCc1ccccc1N(c1cc2c(cn1)ncn2C)C1CC1` [Compound 37, N-Cyclopropyl-N-(2-ethylphenyl)-1-methyl-1H-imidazo[4,5-c]pyridin-6-amine], the IC50 at human JAK1 was 101 to 500 nM; at human JAK2 it was greater than 1000 nM.
For `CCOCCOc1ccc(N(C)c2cc3c(cn2)ncn3C)cc1` [Compound 23, N-(4-(2-ethoxyethoxy)phenyl)-N,1-dimethyl-1H-imidazo[4,5-c]pyridin-6-amine], the IC50 at human JAK1 is 501 to 1000 nM; at human JAK2, greater than 1000 nM.
As to `Cc1ccccc1N(C)c1cc2c(cn1)ncn2C` [Compound 15, N,1-dimethyl-N-o-tolyl 1H-imidazo[4,5-c]pyridin-6-amine], the IC50 was 101 to 500 nM on human JAK1 and greater than 1000 nM on human JAK2.
For the molecule `CCN(c1ccc2sc(C)nc2c1)c1cc2c(cn1)ncn2C` [Compound 10, N-ethyl-2-methyl-N-(1-methyl-1H-imidazo[4,5-c]pyridin-6-yl)benzo[d]thiazol-5-amine], the IC50 at human JAK1 and at human JAK2 was greater than 1000 nM in each case.
